Experimental findings from patent publication US20250034136A1 (Nimbus Wadjet, Inc., priority 2023, published 2025) are described below.

Experiment [1] has as its target WRN (BV08), human Werner helicase (Uniprot Q14191, amino acids 517-1235 with L1074F point mutation) (Homo sapiens (Human), UniProt Q14191, L1074F). The experiment is described as follows: WRN (BV08) ADP-Glo assay. Particulars: class symbols A-E, read-out: ADP-Glo_hWRN_IC50. Type of experiment: biochemical. In general terms: ADP-Glo turns the ADP formed in a reaction into a luminescent signal.

Experiment [2] relates to p21 induction in HCT116 cells. The experiment is described as follows: p21 induction in HCT116 cells. The format is cell-based. Particulars: Homo sapiens, HCT-116, 24 h, HCT116 cells, 24 h compound incubation; read-out: P21_EC50. Put shortly:
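HCT116 cells, 2,000/well, treated 24 h at 37 °C with 11-point compound dilutions in duplicate. Fixed, then immunostained for p21 and GAPDH and read by near-IR imaging at 800/700 nm. Normalized to DMSO (low) and reference WRN inhibitor (high) controls; EC50 from non-linear regression.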

The structures appear in SMILES notation.

Chain of WRN (BV08), human Werner helicase (Uniprot Q14191, amino acids 517-1235 with L1074F point mutation) (Q14191 other isoform, or with tags, fused parts or gaps L1074F (already in the parent)): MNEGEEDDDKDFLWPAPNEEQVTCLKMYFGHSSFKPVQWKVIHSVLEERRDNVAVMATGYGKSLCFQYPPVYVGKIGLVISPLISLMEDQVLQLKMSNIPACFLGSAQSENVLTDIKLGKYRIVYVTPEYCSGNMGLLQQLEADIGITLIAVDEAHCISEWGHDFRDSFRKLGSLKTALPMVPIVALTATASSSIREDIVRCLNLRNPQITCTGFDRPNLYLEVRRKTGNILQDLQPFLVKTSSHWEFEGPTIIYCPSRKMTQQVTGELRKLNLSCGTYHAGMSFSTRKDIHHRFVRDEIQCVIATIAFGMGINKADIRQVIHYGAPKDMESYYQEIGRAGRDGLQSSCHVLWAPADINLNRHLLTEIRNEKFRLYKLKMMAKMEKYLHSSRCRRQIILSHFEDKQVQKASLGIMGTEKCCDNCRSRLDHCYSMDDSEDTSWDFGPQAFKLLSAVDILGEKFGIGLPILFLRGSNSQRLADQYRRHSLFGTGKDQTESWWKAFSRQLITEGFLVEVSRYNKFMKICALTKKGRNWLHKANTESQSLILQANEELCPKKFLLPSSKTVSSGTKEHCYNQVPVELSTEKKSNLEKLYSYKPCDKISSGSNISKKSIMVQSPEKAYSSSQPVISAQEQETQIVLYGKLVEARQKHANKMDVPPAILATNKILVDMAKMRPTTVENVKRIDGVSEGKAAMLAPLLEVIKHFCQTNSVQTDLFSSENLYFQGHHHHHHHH

Regarding `CCc1c(N2CCN(C(=O)c3c(O)cnnc3OC)[C@H]3CC[C@@H]32)c(=O)c2nc(N(C)C)cnc2n1CC(=O)Nc1ccc(C(F)(F)F)cc1Cl` [I-183, N-[2-chloro-4-(trifluoromethyl)phenyl]-2-[2-(dimethylamino)-6-ethyl-7-[(1S,6S)-5-(5-hydroxy-3-methoxypyridazine-4-carbonyl)-2,5-diazabicyclo[4.2.0]octan-2-yl]-8-oxo-5H,8H-pyrido[2,3-b]pyrazin-5-yl]acetamide], the IC50 in experiment [1] lay in the range of 5 to 50 nM. Also, the EC50 in experiment [2] was above 5000 nM.

Regarding `CCc1c(N2CCN(C(=O)c3cnn(C)c3)[C@H]3CC[C@@H]32)c(=O)c2nc(N(C)C)cnc2n1CC(=O)Nc1ccc(C(F)(F)F)cc1Cl` [I-184, N-[2-chloro-4-(trifluoromethyl)phenyl]-2-[2-(dimethylamino)-6-ethyl-7-[(1S,6S)-5-(1-methyl-1H-pyrazole-4-carbonyl)-2,5-diazabicyclo[4.2.0]octan-2-yl]-8-oxo-5H,8H-pyrido[2,3-b]pyrazin-5-yl]acetamide], the IC50 in experiment [1] lay within 5 to 50 nM. The EC50 in experiment [2] is 2000 to 5000 nM.

Turning to `CCc1c(N2CCN(C(=O)c3ncnc(C)c3O)C[C@@H]2C)c(=O)c2nc(N(C)C)cnc2n1CC(=O)Nc1ccc(S(F)(F)(F)(F)F)cc1Cl` [I-185, N-[2-chloro-4-(pentafluoro-lambda6-sulfanyl)phenyl]-2-[2-(dimethylamino)-6-ethyl-7-[(2S)-4-(5-hydroxy-6-methylpyrimidine-4-carbonyl)-2-methylpiperazin-1-yl]-8-oxo-5H,8H-pyrido[2,3-b]pyrazin-5-yl]acetamide], in experiment [1], the IC50 lay within 5 to 50 nM. The EC50 in experiment [2] was below 500 nM.

Consider `CCc1c(N2CCN(C(=O)c3ncnc(C)c3O)CC2)c(=O)c2nc(NCC3CC3)cnc2n1CC(=O)Nc1ccc(C(F)(F)F)cc1Cl` [I-186, N-[2-chloro-4-(trifluoromethyl)phenyl]-2-{2-[(cyclopropylmethyl)amino]-6-ethyl-7-[4-(5-hydroxy-6-methylpyrimidine-4-carbonyl)piperazin-1-yl]-8-oxo-5H,8H-pyrido[2,3-b]pyrazin-5-yl}acetamide], for which, in experiment [1], the IC50 lay within 5 to 50 nM. The EC50 in experiment [2] was 2000 to 5000 nM.

On to `CCc1c(N2CCN(C(=O)c3ncnc(C)c3O)C[C@@H]2C)c(=O)c2nc(N3CCC3)cnc2n1CC(=O)Nc1ccc(C(F)(F)F)cc1Cl` [I-187, 2-[2-(azetidin-1-yl)-6-ethyl-7-[(2S)-4-(5-hydroxy-6-methylpyrimidine-4-carbonyl)-2-methylpiperazin-1-yl]-8-oxo-5H,8H-pyrido[2,3-b]pyrazin-5-yl]-N-[2-chloro-4-(trifluoromethyl)phenyl]acetamide], for which, in experiment [1], the IC50 was 5 to 50 nM. Further, in experiment [2], the EC50 fell in the range of 500 to 2000 nM.

Take `CCc1c(N2CCN(C(=O)c3ncnc(C)c3O)C[C@@H]2C)c(=O)c2nc(N3CC[C@H]3COC)cnc2n1CC(=O)Nc1ccc(C(F)(F)F)cc1Cl` [I-188, N-[2-chloro-4-(trifluoromethyl)phenyl]-2-{6-ethyl-7-[(2S)-4-(5-hydroxy-6-methylpyrimidine-4-carbonyl)-2-methylpiperazin-1-yl]-2-[(2S)-2-(methoxymethyl)azetidin-1-yl]-8-oxo-5H,8H-pyrido[2,3-b]pyrazin-5-yl}acetamide]: the IC50 in experiment [1] was in the range of 5 to 50 nM. Moreover, in experiment [2], the EC50 was in the range of 500 to 2000 nM.

For `CCc1c(N2CCN(C(=O)c3ncnc(C)c3O)C[C@@H]2C)c(=O)c2nc(N3CC[C@@H]3COC)cnc2n1CC(=O)Nc1ccc(C(F)(F)F)cc1Cl` [I-189, N-[2-chloro-4-(trifluoromethyl)phenyl]-2-{6-ethyl-7-[(2S)-4-(5-hydroxy-6-methylpyrimidine-4-carbonyl)-2-methylpiperazin-1-yl]-2-[(2R)-2-(methoxymethyl)azetidin-1-yl]-8-oxo-5H,8H-pyrido[2,3-b]pyrazin-5-yl}acetamide], in experiment [1], the IC50 fell in the range of 5 to 50 nM. For the same compound, the EC50 in experiment [2] fell in the range of 500 to 2000 nM.

As for `CCc1c(N2CCN(C(=O)c3ncnc(C)c3O)C[C@@H]2C)c(=O)c2nc(N3CCC3)cnc2n1CC(=O)Nc1ccc(S(F)(F)(F)(F)F)cc1Cl` [I-190, 2-[2-(azetidin-1-yl)-6-ethyl-7-[(2S)-4-(5-hydroxy-6-methylpyrimidine-4-carbonyl)-2-methylpiperazin-1-yl]-8-oxo-5H,8H-pyrido[2,3-b]pyrazin-5-yl]-N-[2-chloro-4-(pentafluoro-lambda6-sulfanyl)phenyl]acetamide], the IC50 in experiment [1] is 5 to 50 nM. For the same compound, the EC50 in experiment [2] is below 500 nM.

As to `CCc1c(N2CCN(C(=O)c3ncnc(C)c3O)C[C@@H]2CC)c(=O)c2nc(N(C)C)cnc2n1CC(=O)Nc1ccc(C(F)(F)F)cc1Cl` [I-191, N-[2-chloro-4-(trifluoromethyl)phenyl]-2-[2-(dimethylamino)-6-ethyl-7-[(2S)-2-ethyl-4-(5-hydroxy-6-methylpyrimidine-4-carbonyl)piperazin-1-yl]-8-oxo-5H,8H-pyrido[2,3-b]pyrazin-5-yl]acetamide], in experiment [1], the IC50 lay within 5 to 50 nM. Further, the EC50 in experiment [2] was in the range of 500 to 2000 nM.

For the compound `CCc1c(N2CCN(C(=O)c3ncc4c(c3O)CCO4)CC2)c(=O)c2nc(N(C)C3CC3)cnc2n1CC(=O)Nc1ccc(C(F)(F)F)cc1Cl` [I-194, N-[2-chloro-4-(trifluoromethyl)phenyl]-2-{2-[cyclopropyl(methyl)amino]-6-ethyl-7-(4-{4-hydroxy-2H,3H-furo[2,3-c]pyridine-5-carbonyl}piperazin-1-yl)-8-oxo-5H,8H-pyrido[2,3-b]pyrazin-5-yl}acetamide], the IC50 in experiment [1] is at most 5 nM. The EC50 in experiment [2] was below 500 nM.

As to `CCc1c(N2CCN(C(=O)c3ncnc(C)c3O)CC2)c(=O)c2nc(OC3CC3)cnc2n1CC(=O)Nc1ccc(C(F)(F)F)cc1Cl` [I-195, N-[2-chloro-4-(trifluoromethyl)phenyl]-2-{2-cyclopropoxy-6-ethyl-7-[4-(5-hydroxy-6-methylpyrimidine-4-carbonyl)piperazin-1-yl]-8-oxo-5H,8H-pyrido[2,3-b]pyrazin-5-yl}acetamide], the IC50 in experiment [1] lay in the range of 5 to 50 nM. Also, in experiment [2], the EC50 was in the range of 2000 to 5000 nM.

Turning to `CCc1c(N2CCN(C(=O)c3ncnc(C)c3O)[C@@H](C(F)F)C2)c(=O)c2nc(N(C)C)cnc2n1CC(=O)Nc1ccc(C(F)(F)F)cc1Cl` [I-197, N-[2-chloro-4-(trifluoromethyl)phenyl]-2-{7-[(3R)-3-(difluoromethyl)-4-(5-hydroxy-6-methylpyrimidine-4-carbonyl)piperazin-1-yl]-2-(dimethylamino)-6-ethyl-8-oxo-5H,8H-pyrido[2,3-b]pyrazin-5-yl}acetamide], in experiment [1], the IC50 is 50 to 100 nM. The EC50 in experiment [2] is above 5000 nM.

Take `CCc1c(N2CCN(C(=O)c3ncnc(C)c3O)[C@H]3CC[C@@H]32)c(=O)c2nc(N(C)C)cnc2n1CC(=O)Nc1ccc(OC(F)(F)F)cc1Cl` [I-199, N-[2-chloro-4-(trifluoromethoxy)phenyl]-2-[2-(dimethylamino)-6-ethyl-7-[(1S,6S)-5-(5-hydroxy-6-methylpyrimidine-4-carbonyl)-2,5-diazabicyclo[4.2.0]octan-2-yl]-8-oxo-5H,8H-pyrido[2,3-b]pyrazin-5-yl]acetamide]: the IC50 in experiment [1] is 5 to 50 nM. Also, in experiment [2], the EC50 was below 500 nM.

Consider `CCc1c(N2CCN(C(=O)c3ncnc(C)c3O)[C@H]3CC[C@@H]32)c(=O)c2nc(N(C)C)cnc2n1CC(=O)Nc1ccc(S(F)(F)(F)(F)F)cc1Cl` [I-200, N-[2-chloro-4-(pentafluoro-lambda6-sulfanyl)phenyl]-2-[2-(dimethylamino)-6-ethyl-7-[(1S,6S)-5-(5-hydroxy-6-methylpyrimidine-4-carbonyl)-2,5-diazabicyclo[4.2.0]octan-2-yl]-8-oxo-5H,8H-pyrido[2,3-b]pyrazin-5-yl]acetamide], for which, in experiment [1], the IC50 is 5 to 50 nM. Also, the EC50 in experiment [2] is below 500 nM.

On to `CCc1c(N2CCN(C(=O)c3ncnc(C)c3O)CC2)c(=O)c2nc(-n3cccn3)cnc2n1CC(=O)Nc1ccc(C(F)(F)F)cc1Cl` [I-201, N-[2-chloro-4-(trifluoromethyl)phenyl]-2-{6-ethyl-7-[4-(5-hydroxy-6-methylpyrimidine-4-carbonyl)piperazin-1-yl]-8-oxo-2-(1H-pyrazol-1-yl)-5H,8H-pyrido[2,3-b]pyrazin-5-yl}acetamide], for which, in experiment [1], the IC50 is 5 to 50 nM. Besides, the EC50 in experiment [2] was in the range of 2000 to 5000 nM.

For `CCc1c(N2CCN(C(=O)c3ncc4c(c3O)OCC4)CC2)c(=O)c2nc(N(C)C3CC3)cnc2n1CC(=O)Nc1ccc(C(F)(F)F)cc1Cl` [I-203, N-[2-chloro-4-(trifluoromethyl)phenyl]-2-{2-[cyclopropyl(methyl)amino]-6-ethyl-7-(4-{7-hydroxy-2H,3H-furo[3,2-c]pyridine-6-carbonyl}piperazin-1-yl)-8-oxo-5H,8H-pyrido[2,3-b]pyrazin-5-yl}acetamide], the IC50 in experiment [1] was at most 5 nM. In addition, the EC50 in experiment [2] fell in the range of 500 to 2000 nM.

As to `CCc1c(N2CCN(C(=O)c3c(OC)ncc(C)c3O)CC2)c(=O)c2nc(N(C)C)cnc2n1CC(=O)Nc1ccc(C(F)(F)F)cc1Cl` [I-204, N-[2-chloro-4-(trifluoromethyl)phenyl]-2-[2-(dimethylamino)-6-ethyl-7-[4-(4-hydroxy-2-methoxy-5-methylpyridine-3-carbonyl)piperazin-1-yl]-8-oxo-5H,8H-pyrido[2,3-b]pyrazin-5-yl]acetamide], the IC50 in experiment [1] was 5 to 50 nM. Moreover, the EC50 in experiment [2] was below 500 nM.

In the case of `CCc1c(N2CCN(C(=O)c3ncnc(C)c3O)CC2)c(=O)c2nc(N(C)C3(C)CC3)cnc2n1CC(=O)Nc1ccc(C(F)(F)F)cc1Cl` [I-205, N-[2-chloro-4-(trifluoromethyl)phenyl]-2-{6-ethyl-7-[4-(5-hydroxy-6-methylpyrimidine-4-carbonyl)piperazin-1-yl]-2-[methyl(1-methylcyclopropyl)amino]-8-oxo-5H,8H-pyrido[2,3-b]pyrazin-5-yl}acetamide], in experiment [1], the IC50 was 5 to 50 nM. In addition, the EC50 in experiment [2] was below 500 nM.
